# Key:
# [1] = tested on: LPS Induced TNF-α in Human Blood; assay: LPS induced TNF-α in human whole blood; type: cell-based; details: LPS 0.5 ng/ml overnight, read-out: Human Whole Blood Assays (IC5050), TNFα LPS
# Method: (§1) To assess the effect of whole blood on the potency of compound I-1 and Comparison-1, the compounds were evaluated for their inhibitory potential on TLR dependent cytokine release in human blood. Freshly drawn peripheral blood from healthy volunteers was incubated with test compound and stimulated overnight with LPS or Gardiquimod. The serum was isolated after centrifugation and TNF-α and IL-6 were measured by ELISA.
# Whole blood of healthy volunteers was collected in Vacutainer containing Sodium Heparin and plate 40 μL of blood to each well. Compound was serially diluted in DMSO from 2 mM in 3-fold dilutions, and then diluted 1:100 in media with 10% FBS. 50 μL of 2× compound was added per well in duplicate to each well and incubate for one hour. 10 μL LPS was added to each well at a final concentration of 0.5 ng/ml and allow cells to incubate overnight.
# 100 μL of PBS was added to each well and centrifuged for 10 minutes at 1000 RPM. 25 μL of supernatant were taken, and TNF-α was measured on Luminex Flexmap 3d.
# [2] = tested on: TLR dependent cytokine release in human blood; assay: Human whole blood assays, average of IL-6 Gard and TNFα LPS; type: cell-based; details: read-out: Human Whole Blood Assays (IC5050), Average
# Method: as §1
# [3] = tested on: TLR7-Induced TNF-α in Human Peripheral Blood Mononuclear Cells (PBMC); assay: TLR7-induced TNF-α in human PBMC (resiquimod); type: cell-based; details: resiquimod 0.1 μg/ml, read-out: Cell Assays IC50, TNFα (PBMC, resiquimod)
# Method: Human peripheral blood mononuclear cells (PBMC) were seeded at 100,000 cells per well in 100 μL of RPMI with 10% FCS and primed overnight with 8 ng/ml of IFN-β at 37° C., 5% CO2. Compound was serially diluted in DMSO from 2 mM in 3-fold dilutions, and then diluted 1:100 in RPMI 1640 complete media with 10% FBS (2× stock). The PBMCs were pre-incubated with test compound for 1 hour at 37° C., 5% CO2 by adding 100 μL of RPMI media containing 2× concentrated test compound per well (0.5% final DMSO concentration).
# The PBMCs were stimulated with resiquimod (10 μL per well of 21× concentrated resiquimod solution in RPMI media to give a final concentration of 0.1 μg/ml) at 37° C., 5% CO2 for an additional 18 hours. 100 μL of supernatant per well was harvested to measure TNF-α. TNF-α was quantitated using DuoSet ELISA Kit per manufacturer's protocol.
# [4] = Plasma protein binding, equilibrium dialysis (RED), mouse; type: in vitro ADME; details: drug 5 μM; for recovery at 5 μM: low due to hydrolysis; for fraction unbound at 5 μM: read-out: % bound (converted)
# Method: (§2) Brain and plasma drug binding were performed by equilibrium dialysis using the Rapid Equilibrium Dialysis (RED) device. Briefly, 300 μL of plasma or brain homogenate (1 brain/3 buffer) containing drug (5 μM) was equilibrated (4-18 h) against 500 μL of buffered saline. After incubation, the concentration of drug in plasma/brain homogenate and buffer was determined by LC-MS/MS.
# (§3) Recovery is calculated by determining the total amount of drug in 50 μL of plasma and 50 μL buffer after the incubation and comparing that value to the amount of drug in 50 μL of a plasma sample that was not incubated. For the protein binding assay, drug was added to the plasma and this plasma was added to one side of the dialysis device while buffer was added to the other. After filing the plasma chamber of the equilibrium device, a 50 μL aliquot of plasma was mixed with 50 μL of buffer and then quenched with stop reagent. Drug recovery=(Drug buffer+Drug plasma)/(drug in initial plasma)
# [5] = target: T1, IRAK4 (Homo sapiens, UniProt Q9NWZ3); assay: IRAK4 ADP-Glo kinase assay; type: biochemical; details: for IC50: n >= 3
# T1 construct: purchased Signalchem I12-10G-20
# T1 sequence (Q9NWZ3 1-460): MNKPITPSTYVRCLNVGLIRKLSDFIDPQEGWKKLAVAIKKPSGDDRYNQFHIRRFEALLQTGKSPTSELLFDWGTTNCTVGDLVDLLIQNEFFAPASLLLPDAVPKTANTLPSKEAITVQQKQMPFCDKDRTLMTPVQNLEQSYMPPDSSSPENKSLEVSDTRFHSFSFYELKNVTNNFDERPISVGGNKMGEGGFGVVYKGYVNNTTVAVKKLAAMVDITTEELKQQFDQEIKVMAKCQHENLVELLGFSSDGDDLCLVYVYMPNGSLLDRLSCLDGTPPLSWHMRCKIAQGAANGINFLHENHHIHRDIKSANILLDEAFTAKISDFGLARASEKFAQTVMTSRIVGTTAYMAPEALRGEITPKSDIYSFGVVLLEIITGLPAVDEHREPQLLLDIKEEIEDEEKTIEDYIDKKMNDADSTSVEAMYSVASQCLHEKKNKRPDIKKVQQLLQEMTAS
# Method: The ADP-Glo™ reagents were thawed at ambient temperature. The Kinase Detection Reagent was prepared by mixing kinase detection buffer with the lyophilized kinase detection substrate, and set aside.
# A stock volume of 5× Reaction Kinase Buffer was made with a final concentration of 100 mM MgCl2, 200 mM Tris-HCl, and 0.5 mg/ml of BSA, in distilled H2O with a final pH7.4. A 2× working stock volume of Reaction Kinase Buffer was made containing a final concentration of 100 μM DTT.
# The components of IRAK4 Enzyme were thawed on ice. Diluted IRAK4 in 1× Kinase Reaction Buffer (diluted from 2× buffer) was prepared at […]. A 250 μM working stock ATP Assay Solution was prepared in 1× Kinase Reaction Buffer (diluted from 2× buffer).
# The compound was diluted in DMSO from 250 µM in 4-fold series dilutions for 8 points. Then diluted 1:5 in 2× Reaction Buffer in a 96 well plate. 1.0 μl was transferred to a 384 well plate in duplicate. […] 1 μl of 1 mg/ml stock solution of MBP substrate was added NOTE: MBP can be combined with ATP mix with equal volume and then added at 2 μl/well. Final reaction volume was 5 μl. The plate was centrifuged and the reaction mixture was incubated at room temperature for 60 minutes or at 30° C. for 30 minutes.
# The reaction was terminated and the remaining ATP was depleted by adding 5 μl of ADP-Glo™ Reagent. The 384-well plate was centrifuged and then the reaction mixture was incubated for another 40 minutes at ambient temperature.
# 10 μl of the Kinase Detection Reagent was added. The plate was centrifuged and then the reaction mixture was incubated for another 30 minutes at ambient temperature.
# The 384-well reaction plate was read using the WALLAC plate reader (Luminescence 0.1s).
# [6] = Plasma protein binding, equilibrium dialysis (RED), dog; type: in vitro ADME; details: drug 5 μM; for fraction unbound at 5 μM: read-out: % bound (converted)
# Method: as §2, §3
Compound,IC50 [1],IC50 [2],IC50 [3],recovery at 5 μM [4],fraction unbound at 5 μM [4],IC50 [5],recovery at 5 μM [6],fraction unbound at 5 μM [6],"EC50 ([5]; read-out: IRAK4 ADP-Glo Kinase, 8 pt EC50)"
"CCO[C@H]1CC[C@H](n2cc(NC(=O)c3csc(-c4cn[nH]c4)n3)c(-c3nc(F)ccc3F)n2)CC1 [Comparison-1, reference compound]",1400 nM,1400 nM,15 nM,10%,0.022,6 ± 6 nM,77.2%,0.01,
"CCO[C@H]1CC[C@H](n2cc(NC(=O)c3csc(-c4cn[nH]c4)n3)c(-c3ncccn3)n2)CC1 [Compound I-1, N-(1-((1r,4r)-4-ethoxycyclohexyl)-3-(pyrimidin-2-yl)-1H-pyrazol-4-yl)-2-(1H-pyrazol-4-yl)thiazole-4-carboxamide]",224 nM,174 nM,3 nM,23.6%,0.085,7 ± 4 nM,70.7%,0.066,7 nM

# Reference: patent US12384775B2, “Pyrimid-2-yl-pyrazole compounds as IRAK inhibitors” (Rigel Pharmaceuticals, Inc., priority 2022, dated 2025)
